Where “and” joins values, the source holds several entries; their conditions need not be identical. Equal values may be shown once.
Columns and labels:
[1] = test system: RAT-1 fibroblasts transfected with ras c-DNA; test: Focus formation in RAT-1 fibroblasts transfected with activated Ha-ras c-DNA; type: cell-based
Experimental: Transfection was carried out as follows: RAT-1 fibroblasts were seeded at a density of 2×10^5 cells in Dulbecco's modified Eagle's medium (DMEM) (Gibco) containing 5% fetal bovine serum (FBS) in 100 mm dishes. Cells were grown overnight, then transfected with 10 μg of DNA (expression vector alone [pZIP-NeoSV(X)1] or containing the α1B-ADR, α1B -ADR mutant [discussed in Example 3 below] or activated Ha-ras c-DNAs) by calcium phosphate precipitation (B. Cullen, Methods Enzymol. 152, 684 (1987)). The α1B -ADR used herein was the hamster α1B -ADR described in S. Cotecchia et al., Proc. Natl. Acad. Sci. USA 85, 7159-7163 (1988). After 16 hours, the DNA precipitate was removed, the cells washed and grown for 24 hours in complete medium. Cells were split 1:5, allowed to attach overnight and then cultured in DMEM with 5% FBS alone, supplemented with 10 μM norepinephrine (NE) or G418 (300 μg/ml). Dishes were supplemented with NE daily, and fed every 3 days with fresh medium.
^1 Cells were cultured for 3 weeks in the presence or absence of 10
μM norepinephrine (NE), supplemented daily, in medium containing 5%
FBS. The number of transformed foci were scored after 4 weeks of culture.
Results represent the average duplicate determinations from two
independent experiments which agreed within 25%; nd = not determined. […]
growth, the number of foci was scored. […]

[2] = target: T1, α1B ADR mutant (Mesocricetus auratus, UniProt P18841, A293L/K290H/R288K); test: Ligand binding on membranes of RAT-1 fibroblast cell lines expressing the α1B ADR mutant; parameters: species or system hamster; conditions: competition with 100 pM [125I] HEAT; membranes, two clones; read-out: NE Ki
T1 construct: expressed in transfected cells; host or cells: RAT-1 fibroblasts (vector pZIP-NeoSV(X)1), focus-derived, G418-selected lines
T1 sequence (P18841 1-515 R288K/K290H/A293L): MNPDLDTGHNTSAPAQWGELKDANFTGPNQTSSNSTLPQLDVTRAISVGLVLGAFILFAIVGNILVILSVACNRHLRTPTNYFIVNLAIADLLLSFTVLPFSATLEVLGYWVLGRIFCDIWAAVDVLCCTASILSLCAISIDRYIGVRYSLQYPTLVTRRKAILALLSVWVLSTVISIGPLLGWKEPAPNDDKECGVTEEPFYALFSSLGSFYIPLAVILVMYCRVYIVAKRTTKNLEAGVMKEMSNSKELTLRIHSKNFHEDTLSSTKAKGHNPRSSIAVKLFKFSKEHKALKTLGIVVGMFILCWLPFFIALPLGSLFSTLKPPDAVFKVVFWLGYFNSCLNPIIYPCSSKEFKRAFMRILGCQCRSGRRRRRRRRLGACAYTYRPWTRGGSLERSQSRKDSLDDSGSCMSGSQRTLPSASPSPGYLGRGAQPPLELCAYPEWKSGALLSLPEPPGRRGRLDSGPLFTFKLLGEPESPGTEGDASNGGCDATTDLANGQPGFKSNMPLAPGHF
Experimental: (§1) In Table 3, RAT-1 fibroblast cell lines transfected with expression vector alone or derived from transformed foci (α1B ADR or α1B ADR mutant) were selected with G418 (300 μg/ml). Ligand binding was performed on membranes prepared from two clones of each in accordance with known techniques (S. Cotecchia et al., Life Sci. 37, 2389 (1986)). For saturation binding analysis, [^125 ] HEAT concentrations ranged from 10 to 500 pM, nonspecific binding was determined using 1 μM prazosin; in competition experiments, the radioligand concentration was 100 pM. Ligand binding parameters were determined using computerized iterative nonlinear regression analysis (P. Munson, Methods in Enzymol. 92, 5432 (1983)). For assessment of receptor coupling to PI hydrolysis, cells were plated in 30 mm dishes, and labeled overnight with 3 μCi/ml of myo-[2-^3 II(N)]-inositol (1Ci=37 GBq; NEN Research Products) in DMEM containing 3.3% FBS in accordance with known techniques (S. Cotecchia et al., Proc. Natl. Acad. Sci. USA 87, 2896 (1990)). After 40 minute stimulation of cells with 10 μM norepinephrine (NE), inositol phosphates were extracted, and separated on AG 1-X8 anion exchange columns (BioRad Labs) in accordance with known techniques (S. Cotecchia et al., Proc. Natl. Acad. Sci. USA 87, 2896 (1990)). Total inositol phosphates were eluted with 1M ammonium formate/0.1M formic acid. Rmax indicates the percentage increase of total labeled inositol phosphates over basal levels following NE stimulation.

[3] = test system: RAT-1 fibroblasts transfected with α1B -ADR c-DNA; test: Focus formation in RAT-1 fibroblasts transfected with α1B-ADR c-DNA; type: cell-based
Experimental: Transfection was carried out as follows: RAT-1 fibroblasts were seeded at a density of 2×10^5 cells in Dulbecco's modified Eagle's medium (DMEM) (Gibco) containing 5% fetal bovine serum (FBS) in 100 mm dishes. […] After 16 hours, the DNA precipitate was removed, the cells washed and grown for 24 hours in complete medium. Cells were split 1:5, allowed to attach overnight and then cultured in DMEM with 5% FBS alone, supplemented with 10 μM norepinephrine (NE) or G418 (300 μg/ml). Dishes were supplemented with NE daily, and fed every 3 days with fresh medium.

[4] = test system: α1B -ADR; conditions: NE alone, serum free medium; data not shown
[5] = target: T1, α1B ADR mutant; test: NE stimulated PI hydrolysis in RAT-1 cell lines expressing the α1B ADR mutant; type: cell-based, hamster
Experimental: as §1, with “Rmax indicates the percentage increase of total labeled inositol phosphates over basal levels following NE stimulation.” left out

With NC[C@H](O)c1ccc(O)c(O)c1 [NE, norepinephrine] the “Foci No. +NE” value ([1]; RAT-1 transfected with ras, 10 μM NE supplemented daily, 5% FBS (Table 1)) was 197, the “Foci No. +NE” value ([1]; focus derived RAT-1 cell lines, ras, 10 μM NE, 3 weeks of growth, two clones (Table 2)) was > 500 and 460 and the Ki [2] was 42 nM and 47 nM. For the same compound, the “Agonist-induced foci as share of transfected clones” value ([3]; RAT-1, relative to number of G418 resistant colonies (40-60/dish)) was 15-25%, the “Foci No. +NE” value ([3]; RAT-1 transfected with α1B ADR, 10 μM NE supplemented daily, 5% FBS, initially transfected cells (Table 1)) was 8 and the “Foci No. +NE” value ([3]; focus derived RAT-1 cell lines, α1B ADR, 10 μM NE, 3 weeks of growth, two clones (Table 2)) was 75 and 80. For the same compound, the “increase in DNA synthetic activity” value [4] was 11 fold, the “NE Stimulated PI Hydrolysis Rmax” value ([5]; 10 μM NE, 40 minute, increase of total labeled inositol phosphates over basal, two clones) was 861 % increase and 954 % increase and the “increase in inositol phosphates induced by NE” value ([5]; cell lines expressing the α1B-ADR mutant) was 900 to 1000%.
